Here are results for one compound from US11241477B2, “Oxytocin compositions for treatment of tinnitus” (New York University, priority 2019, dated 2022).

This test deals with tinnitus. The test can be described thus: clinical use of intranasal oxytocin formulations to treat tinnitus. It counts as in vivo, human. From the text: In an aspect, this disclosure provides a method for treating tinnitus. The method comprises administering intranasally to an individual a composition comprising or consisting essentially of oxytocin, wherein such administration results in treatment of tinnitus. The effectiveness of treatment of tinnitus may be monitored by quantifying tinnitus, such as by self-evaluation using clinically accepted techniques. An example is the Tinnitus Handicap Inventory (“THI”), a validated and published measurement technique. (Newman et al., Arch Otolaryngol Head Neck Surg, 1996, February 122(2), 143-8). In an embodiment, the improvement in an individual using THI may comprise an improvement of at least 10%. In various embodiments, the improvement may comprise from 10-100%, such as at least 20, 30, 40, 50, 60, 70, 80, 90, 95, or 99%. This example describes clinical use of the present formulations to treat tinnitus. […] The formulation contained oxytocin, magnesium chloride, citric acid, and sodium citrate in sterile water. […] The dose was then increased to 45 IU (3 sprays of 15 IU) 4 times daily. […] A thickener was then added to the formulation keeping the oxytocin amount the same. […] Their score on the Tinnitus Handicap Inventory reduced from a pretreatment score of 96 (meaning a catastrophic level) to a current score of 14 (meaning mild or no tinnitus). The patient has remained improved over 1 year since initiating therapy. Their current dose is 22.5 IU in each nostril 4 times daily. Since their tinnitus occurs in distinct cycles, at times when tinnitus severity is loudest, they increase the dose to 5 times daily for 2 days. […] Their current handicap inventory is 8. […] The dose was increased to 45 IU 4 times daily resulting in a decrease in tinnitus volume by approximately 30%. In another patient, who developed constant tinnitus after a neck injury one year ago, a dose of 45 IU (22.5 IU in each nostril) 4 times daily was used for 30 days and is still ongoing. It has provided about 15% improvement. […] In another patient with constant tinnitus a dose of 30 IU 4 times daily has been started and treatment is ongoing.

Where [1] appears, read: patient with constant tinnitus, 30 IU 4 times daily, after 2 weeks.
Where [2] appears, read: second patient, 45 IU twice daily.

Some results are limits rather than exact numbers.

As to `CC[C@H](C)[C@@H]1NC(=O)[C@H](Cc2ccc(O)cc2)NC(=O)[C@@H](N)CSSC[C@@H](C(=O)N2CCC[C@H]2C(=O)N[C@@H](CC(C)C)C(=O)NCC(N)=O)NC(=O)[C@H](CC(N)=O)NC(=O)[C@H](CCC(N)=O)NC1=O` [oxytocin], the “time remained improved since initiating therapy” value (first patient) is “over 1 year”. The compound further displayed a current handicap inventory (first patient, 22.5 IU in each nostril 4 times daily, 5 times daily for 2 days when loudest) of 8. In addition, the time without tinnitus (first patient, 22.5 IU in each nostril 4 times daily, 5 times daily for 2 days when loudest, past 3 months) is listed as at most 10 days. The relief of tinnitus result (first patient, 45 IU (3 sprays of 15 IU) 4 times daily, no thickener) was “significant relief”. Further, for the setting “first patient, 60 IU daily (30 IU twice daily), oxytocin, magnesium chloride, citric acid, sodium citrate in sterile water”, the patient-reported benefit entry was “partial benefit”. Moreover, under “first patient, formulation with thickener, pretreatment score 96 (catastrophic level)”, the “score on the Tinnitus Handicap Inventory” value amounted to 14. In addition, under “first patient, initial dose of less than 20 IU daily, intranasal”, the relief of tinnitus entry is “did not provide any relief”. Further, under “first patient, thickener added to the formulation, oxytocin amount the same (45 IU 4 times daily)”, the tinnitus free period result was “several days of tinnitus free period”. For the same compound, the relief of tinnitus entry (lower amounts of oxytocin (such as under 20 IU per day)) is “did not result in any significant relief”. The improvement result (patient with constant tinnitus after neck injury, 45 IU (22.5 IU in each nostril) 4 times daily for 30 days) is reported as “about 15%”. Besides, the tinnitus volume entry (patient with constant tinnitus after neck injury, dose raised to 5 times daily on occasions) is “diminished tinnitus volume”. For the same compound, under setting [1], the “time without noticing the tinnitus” value is “several hours per day without noticing the tinnitus” and the tinnitus intensity result is “tinnitus intensity has lowered”. Also, the benefit result (patient with drug-caused tinnitus, 30 IU twice daily) is “without benefit”. Moreover, where the note is “patient with drug-caused tinnitus, 45 IU 4 times daily”, the “decrease in tinnitus volume” value was “approximately 30%”. Besides, under setting [2], the benefit entry is “significant benefit”, the “reduction of tinnitus volume” value was 45-60%, the “time remaining improved on dosing schedule” value is “more than a year” and the tinnitus free days entry is recorded as “some days in which they are tinnitus free”.
